{"source": "patent US20150257394A1", "about": "“TEA EXTRACTS AND USES IN PROMOTING PLANT GROWTH” (PLANT ACTIVITY LTD., priority 2012, published 2015)", "system": "wheat seeds", "assay": "Effect of preservative on promotion of wheat seedling root growth by black tea extract (Example 10)", "assay_type": "in vivo", "details": "1% solution of methyl paraben predissolved in hexalene glycol", "protocol": "To evaluate whether a preservative affects the benefits of black tea extracts on wheat germination and early root growth, Malawi black tea extracts and Kenya black tea extracts were prepared according to Example 1 and used to treat wheat seeds (0.6 ml/kg seed) in combination with a preservative (1% solution of methyl paraben that has been predissolved in hexalene glycol (30:1 ratio of hexalene glycol to methyl paraben)) or without the preservative substantially according to Example 2. Root system measurements were performed according to Example 6.", "data": [{"smiles": "COC(=O)c1ccc(O)cc1", "note": "[methyl paraben]", "values": [{"measurement": "effect of preservative on the benefits of the black tea extracts", "value": "did not negatively affect"}]}]}
